Drawing on ChEMBL document CHEMBL4813942, “Hydrated Rubrolides from the New Zealand Tunicate Synoicum kuranui” (2021), this text covers Activity and MIC for five compounds.

The subject of experiment [1] is HCT-116. Put plainly: Cytotoxicity against human HCT-116 cells assessed as reduction in cell growth at 0.06 to 30 uM measured after 48 hrs by MTS assay. As to conditions: dose 0.06-30 µM. The class given is functional, cell-based. For orientation: Tetrazolium dyes change colour on reduction, which living cells bring about.
In experiment [2] the test system is Staphylococcus aureus. As to the kind of experiment: Antibacterial activity against methicillin-sensitive Staphylococcus aureus ATCC 25923 assessed as bacterial growth inhibition measured after 16 hrs by serial dilution method. The class given is functional.
Experiment [3] relates to Bacillus subtilis. Put plainly: Antibacterial activity against Bacillus subtilis 168 assessed as bacterial growth inhibition measured after 16 hrs by serial dilution method. The class given is functional. Particulars: subsp. subtilis str. 168.
In experiment [4] the test system is Staphylococcus aureus. As to the kind of experiment: Antibacterial activity against methicillin-resistant Staphylococcus aureus ATCC 43300 assessed as bacterial growth inhibition measured after 16 hrs by serial dilution method. The class given is functional.
For experiment [5], the system named is HCT-116. Put plainly: Cytotoxicity against human HCT-116 cells assessed as reduction in cell growth at 12.8 uM measured after 48 hrs by MTS assay. The class given is functional, cell-based.

Converted amounts (≈) assume the structure as drawn. The source made the active and inactive calls. The rule behind the calls is not given here.

With `O=C1C=C(c2cc(Br)c(O)c(Br)c2)/C(=C/c2cc(Br)c(O)c(Br)c2)O1` [RUBROLIDE A], the outcome in experiment [1] was inactive. Besides, the MIC (as a rule, the least concentration at which growth counts as inhibited) in experiment [2] is 8 µg/mL (≈ 13.4 µM); in experiment [3], 2 µg/mL (≈ 3.36 µM); in experiment [4] it was 2 µg/mL (≈ 3.36 µM).

In the case of `O=C1C=C(c2cc(Br)c(O)c(Br)c2)C(O)(Cc2cc(Br)c(O)c(Br)c2)O1` (centres undefined), the result in experiment [1] was inactive. The minimal inhibitory concentration (MIC) in experiment [2] came to 32 µg/mL (≈ 52.1 µM); in experiment [3] it was 32 µg/mL (≈ 52.1 µM); in experiment [4], 16 µg/mL (≈ 26.1 µM).

On to `CN(C)[C@@H]1C(O)=C(C(N)=O)C(=O)[C@@]2(O)C(O)=C3C(=O)c4c(O)cccc4[C@@](C)(O)[C@H]3C[C@@H]12` [TETRACYCLINE], for which the figures for the MIC in experiment [2], in experiment [3] and in experiment [4] were less than 0.25 µg/mL, 2 µg/mL (≈ 4.5 µM) and less than 0.25 µg/mL, respectively.

Consider `O=C1C=C(c2cc(Br)c(O)c(Br)c2)C(O)(Cc2ccc(O)c(Br)c2)O1` (centres undefined), for which the outcome in experiment [5] was Active. Besides, the MIC in experiment [2], in experiment [3] and in experiment [4] was greater than 128 µg/mL each time.

As for `O=C1OC(O)(Cc2ccc(O)cc2)C(c2cc(Br)c(O)c(Br)c2)=C1Cl` (centres undefined), the result in experiment [1] was inactive. Further, the minimum inhibitory concentration (MIC) in experiment [2], in experiment [3] and in experiment [4] was 128 µg/mL (≈ 261 µM) in each case.
